Data set [1] in a line: Thermodynamic solubility of the polymorphic forms in water (shake flask technique, UV). Type of data set: physicochemical. The note with it: pure water, over night at 25° C., triplicate. On the procedure:
The thermodynamic solubility of FORM 1, FORM 2, and FORM 3 of 1,6-Bis [3-(3-carboxymethylphenyl)-4-(2-α-D-mannopyranosyloxy)-phenyl] hexane (compound of formula (I)) was determined in water by employing the shake flask technique. The sample was added to pure water in a Safelock-tube (Eppendorf, Germany) under vigorous shaking until a white precipitate was formed. The saturated solution was incubated over night at 25° C. in an Eppendorf Thermomixer operated at 700 RPM. The suspension was cleared by centrifugation at 13.000 RPM at room temperature, and the supernatant was carefully collected. The supernatant was further purified by vacuum-filtration through a Millipore solubility filter plate (Millipore, Molsheim, France).
The UV absorption of the filtrate was measured against pure water using a Spectramax250 (Molecular Devices, Sunnyvale, Calif.) operated with Softmax Pro v. 4.8 software, using the application “Mscreen solubility quantify” in the ADME package. The sample concentration was calculated using a 5-point linear calibration line of the compound of formula (I) in acetonitrile:pure water (1:1 vol:vol). Measurements have been performed in triplicate.

The nature of data set [2]: Thermodynamic solubility of the polymorphic forms in organic solvents (HPLC quantification). Type of data set: physicochemical. On the procedure: The thermodynamic solubility of FORM 1, FORM 2, FORM 4, and FORM 6 of 1,6-Bis [3-(3-carboxymethylphenyl)-4-(2-α-D-mannopyranosyloxy)-phenyl] hexane (compound of formula (I)) was determined in several organic solvents by suspending sufficient compound to give a maximum final concentration. Quantification was by reverse phase HPLC with gradient solution with reference to a standard solution of FORM B of the compound of formula (I) at 0.25 mg/ml. The suspensions were equilibrated at 27° C. for 24 hours with shaking. All suspensions were filtered though a glass fibre C filter. The filtrate was then diluted by an appropriate factor in 50:50 ethanol:water apart from isopropyl myristate which was diluted in ethanol to avoid emulsion formation.
Solubilities were calculated using the peak areas determined by the peak found at the same retention time as the principal peak in the standard injection.

Where [3] appears, read: PEG 300, equilibrated at 27° C. for 24 hours with shaking.
Setting [4] is: Triacetin, equilibrated at 27° C. for 24 hours with shaking.
Where [5] appears, read: ethanol, equilibrated at 27° C. for 24 hours with shaking.
Setting [6] is: equilibrated at 27° C. for 24 hours with shaking.

≈ marks a conversion by molar mass, not a printed value.

In data set [1] (25 °C, water, thermodynamic from solid), `O=C(O)Cc1cccc(-c2cc(CCCCCCc3ccc(O[C@H]4O[C@H](CO)[C@@H](O)[C@H](O)[C@@H]4O)c(-c4cccc(CC(=O)O)c4)c3)ccc2O[C@H]2O[C@H](CO)[C@@H](O)[C@H](O)[C@@H]2O)c1` [FORM 1, 1,6-Bis [3-(3-carboxymethylphenyl)-4-(2-α-D-mannopyranosyloxy)-phenyl] hexane] came in with a solubility of 0.022 mg/mL (≈ 0.0255 mM). Also, the “Solubility ranking among the FORMS in PEG 300 (in words)” value in data set [2] (PEG 300, compared with other FORMS) was “highest solubility”. In data set [2] (setting [3]), the “Solubility in PEG 300 (Polyethylene glycol 300)” value is 205 mg/mL (≈ 238 mM). The “Solubility ranking among the FORMS in Triacetin (in words)” value in data set [2] (Triacetin, compared with other FORMS) is “highest solubility”. The “Solubility in Triacetin (glycerin triacetate)” value (“Solubility in Triacetin” for short) in data set [2] (setting [4]) was 0.056 mg/mL (≈ 0.0649 mM). The “Solubility in EtOH (Ethanol)” value in data set [2] (setting [5]) is 4.2 mg/mL (≈ 4.87 mM). For the same compound, the “Solubility in IPA (Isopropyl alcohol)” value in data set [2] (setting [6]) is 3.9 mg/mL (≈ 4.52 mM). Besides, the solubility at 24 h in data set [2] (propylene glycol, 27 °C, organic solvent or mixture, thermodynamic from solid, equilibrated at 27° C. for 24 hours with shaking) worked out at 199 mg/mL (≈ 231 mM). Further, the “Solubility ranking among the FORMS in propylene glycol (in words)” value in data set [2] (propylene glycol, compared with other FORMS) is “highest solubility”.
As to `O=C(O)Cc1cccc(-c2cc(CCCCCCc3ccc(O[C@H]4O[C@H](CO)[C@@H](O)[C@H](O)[C@@H]4O)c(-c4cccc(CC(=O)O)c4)c3)ccc2O[C@H]2O[C@H](CO)[C@@H](O)[C@H](O)[C@@H]2O)c1` [FORM 2, 1,6-Bis [3-(3-carboxymethylphenyl)-4-(2-α-D-mannopyranosyloxy)-phenyl] hexane], the Solubility in water in data set [1] amounted to 0.015 mg/mL (≈ 0.0174 mM). Also, the “Solubility in PEG 300 (Polyethylene glycol 300)” value in data set [2] (setting [3]) worked out at 102 mg/mL (≈ 118 mM). For the same compound, in data set [2] (setting [4]), the “Solubility in Triacetin” value worked out at 0.0083 mg/mL (≈ 0.00962 mM). Also, the “Solubility in EtOH (Ethanol)” value in data set [2] (setting [5]) amounted to 4.2 mg/mL (≈ 4.87 mM). Also, the “Solubility in IPA (Isopropyl alcohol)” value in data set [2] (setting [6]) was 0.52 mg/mL (≈ 0.603 mM). Also, in data set [2] (propylene glycol, equilibrated at 27° C. for 24 hours with shaking), the “Solubility in Propylene Glycol” value was 104 mg/mL (≈ 121 mM).
In turn, `O=C(O)Cc1cccc(-c2cc(CCCCCCc3ccc(O[C@H]4O[C@H](CO)[C@@H](O)[C@H](O)[C@@H]4O)c(-c4cccc(CC(=O)O)c4)c3)ccc2O[C@H]2O[C@H](CO)[C@@H](O)[C@H](O)[C@@H]2O)c1` [FORM 3, 1,6-Bis [3-(3-carboxymethylphenyl)-4-(2-α-D-mannopyranosyloxy)-phenyl] hexane] returned a Solubility in water in data set [1] of 0.014 mg/mL (≈ 0.0162 mM).
On to `O=C(O)Cc1cccc(-c2cc(CCCCCCc3ccc(O[C@H]4O[C@H](CO)[C@@H](O)[C@H](O)[C@@H]4O)c(-c4cccc(CC(=O)O)c4)c3)ccc2O[C@H]2O[C@H](CO)[C@@H](O)[C@H](O)[C@@H]2O)c1` [FORM 4, 1,6-Bis [3-(3-carboxymethylphenyl)-4-(2-α-D-mannopyranosyloxy)-phenyl] hexane], for which the “Solubility in PEG 300 (Polyethylene glycol 300)” value in data set [2] (PEG 300, equilibrated at 27° C. for 24 hours with shaking, listed as 4) stood at 159 mg/mL (≈ 184 mM). Besides, in data set [2] (setting [4]), the “Solubility in Triacetin” value is 0.02 mg/mL (≈ 0.0232 mM). In addition, in data set [2] (ethanol, compared with FORM 1, 2, 4, 6), the “Solubility ranking among the FORMS in ethanol (in words)” value was “highest solubility”. Further, the “Solubility in EtOH (Ethanol)” value in data set [2] (ethanol, equilibrated at 27° C. for 24 hours with shaking, listed as 4) was found to be 48 mg/mL (≈ 55.6 mM). In addition, in data set [2] (equilibrated at 27° C. for 24 hours with shaking, listed as 4), the “Solubility in IPA (Isopropyl alcohol)” value amounted to 1.2 mg/mL (≈ 1.39 mM). For the same compound, the “Solubility in Propylene Glycol” value in data set [2] (propylene glycol, equilibrated at 27° C. for 24 hours with shaking, listed as 4) was found to be 165 mg/mL (≈ 191 mM).
Regarding `O=C(O)Cc1cccc(-c2cc(CCCCCCc3ccc(O[C@H]4O[C@H](CO)[C@@H](O)[C@H](O)[C@@H]4O)c(-c4cccc(CC(=O)O)c4)c3)ccc2O[C@H]2O[C@H](CO)[C@@H](O)[C@H](O)[C@@H]2O)c1` [FORM 6, 1,6-Bis [3-(3-carboxymethylphenyl)-4-(2-α-D-mannopyranosyloxy)-phenyl] hexane], the “Solubility ranking among the FORMS in IPA (in words)” value in data set [2] (IPA, compared with FORM 1, 2, 4, 6) is listed as “highest solubility”. In addition, the “Solubility in PEG 300 (Polyethylene glycol 300)” value in data set [2] (PEG 300, equilibrated at 27° C. for 24 hours with shaking, listed as 6) was 122 mg/mL (≈ 141 mM). Also, in data set [2] (ethanol, equilibrated at 27° C. for 24 hours with shaking, listed as 6), the “Solubility in EtOH (Ethanol)” value amounted to 20 mg/mL (≈ 23.2 mM). The “Solubility in IPA (Isopropyl alcohol)” value in data set [2] (equilibrated at 27° C. for 24 hours with shaking, listed as 6) was 27 mg/mL (≈ 31.3 mM). The “Solubility in Propylene Glycol” value in data set [2] (propylene glycol, equilibrated at 27° C. for 24 hours with shaking, listed as 6) is 170 mg/mL (≈ 197 mM).

The solubility is how much of the substance goes into solution per volume.

The values are drawn from patent US8039601B1, “Crystalline forms of 1,6-Bis [3-(3-carboxymethylphenyl)-4-(2-α-D-mannopyranosyloxy)-phenyl] hexane” (Revotar Biopharmaceuticals AG, priority 2006, dated 2011).
